The text below walks through data of patent publication US5026711A, “4-amino quinolines and naphthyridines and their use as medicines” (priority 1988, dated 1991).

For assay [1], the target named is T1, benzodiazepine receptors of the peripheral type (Felis catus, UniProt A0ABI7ZQW3).
T1 sequence (A0ABI7ZQW3 15-183): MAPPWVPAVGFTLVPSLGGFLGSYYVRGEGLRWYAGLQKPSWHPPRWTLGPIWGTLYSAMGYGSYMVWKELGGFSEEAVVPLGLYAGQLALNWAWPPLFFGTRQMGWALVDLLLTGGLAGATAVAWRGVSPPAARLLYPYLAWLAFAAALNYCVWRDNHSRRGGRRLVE
Put plainly: inhibition of specific binding of [3H] PK11195 to peripheral type benzodiazepine receptors, membrane proteins of cat brain. The note with it: [3H] PK11195 0.5 nM, cat brain membranes, 4° C., 2h30; read-out: IC50 (peripheral). As to the method: The method is similar to that described by J. Benavides et al. in Brain Res. Bull. 13 p. 69-77 (1984) and references cited therein.
Suspensions of membrane proteins of cat brain were prepared as described by J. Benavides.
The assays of inhibition of the binding of [^3 H]
Non specific binding was defined as the amount of [^3 H]

The target of assay [2] is central benzodiazepine receptors. Kind of assay: inhibition of specific binding of [3H] flunitrazepam to central benzodiazepine receptors, rat brain. The settings on record: 4° C., pH 7.4. On the procedure:
(b) determination of the concentration of the product under study inhibiting 50% of the specific binding of flunitrazepam to the central receptors.
The brains of rats were removed after decapitation and ground, then placed in suspension in an aqueous solution of sucrose (0.32M). The mixture is centrifuged and the pellet is resuspended to give a homogenous suspension in a TRIS-HCl buffered solution (50 mM; pH=7.4). Aliquots of this suspension are incubated at 4° C. after addition of [^3 H] flunitrazepam, alone or with increasing amounts of the compound to be tested.

Consider `CCOC(=O)c1cnc2nc(Cl)ccc2c1NC(C)C(=O)N(C)c1ccc(Cl)cc1` (stereo not shown) [compound 26555], for which the half-maximal inhibitory concentration (IC50) in assay [1] is 5 nM; in assay [2], more than 20000 nM.
For `CN(CC(=O)N(C)c1ccc(Cl)cc1)c1c(C(=O)c2ccccc2)cnc2nc(Cl)ccc12` [compound 26578], in that order: 330 nM and 48900 nM.
For `CCCN(CCC)C(=O)C(C)Nc1c(C(=O)OCC)cnc2cc(Br)cnc12` (stereo not shown) [compound 26579], in that order: 1 nM and more than 20000 nM.
With `CCCN(CCC)C(=O)CNc1c(C(=O)c2ccccc2)cnc2cccc(Cl)c12` [compound 26581], the figures for the IC50 in assay [1] and in assay [2] were 43 nM and more than 10000 nM, respectively.
Consider `CN(C(=O)CNc1c(C(=O)c2ccncc2)cnc2cc(Cl)ccc12)c1ccc(Cl)cc1` [compound 26588], for which the results for the half-inhibitory concentration (IC50) in assay [1] and in assay [2] were 2.1 nM and more than 10000 nM, respectively.
For `CCCN(CCC)C(=O)CNc1c(C(=O)c2cccnc2)cnc2cc(Cl)ccc12` [compound 26610], in that order: 35 nM and more than 10000 nM.
`CCCN(CCC)C(=O)C(C)N(C)c1c(C(=O)OCC)cnc2cc(Cl)ccc12` (stereo not shown) [compound 26619]: the half-inhibitory concentration (IC50) in assay [1] was 132 nM; in assay [2], more than 20000 nM.
Turning to `CN(C(=O)CNc1c(C(=O)c2ccccc2)cnc2ccc(Cl)cc12)c1ccc(Cl)cc1` [compound 26620], the figures for the IC50 in assay [1] and in assay [2] were 2.8 nM and more than 10000 nM, respectively.
Regarding `CCCN(CCC)C(=O)C(C)Nc1c(C(=O)O)cnc2cc(Cl)ccc12` (stereo not shown) [compound 26632], the IC50 was 101 nM in assay [1] and more than 20000 nM in assay [2].
For `CN(C(=O)CNc1c(C(=O)c2ccccc2)cnc2nc(Cl)ccc12)c1ccccc1Cl` [compound 26640], the IC50 in assay [1] was 46 nM; in assay [2], 3550 nM.
For `CCCN(CCC)C(=O)C(C)Nc1c(C(=O)OCC)cnc2cc(OC)c(OC)cc12` (stereo not shown) [compound 26641] the same measures were 356 nM and more than 20000 nM.
As to `CN(C(=O)CNc1c(C(=O)c2cccnc2)cnc2cc(Cl)ccc12)c1ccc(Cl)cc1` [compound 26643], the values for the IC50 in assay [1] and in assay [2] were 1.2 nM and more than 10000 nM, respectively.
For `CN(C(=O)CNc1c(C(=O)c2ccccc2)cnc2cccnc12)c1ccccc1Cl` [compound 26651] the same measures were 0.93 nM and 8490 nM.
Take `CN(C(=O)CNc1c(C(=O)c2ccccc2)cnc2cc(Cl)ccc12)c1ccc(Cl)c(Cl)c1` [compound 26676]: the concentration for half-maximal inhibition (IC50) in assay [1] is 1.1 nM; in assay [2], more than 10000 nM.
With `COc1ccc2ncc(C(=O)c3ccccc3)c(NCC(=O)N(C)c3ccc(Cl)cc3)c2n1` [compound 26698], the IC50 in assay [1] is 1.95 nM; in assay [2], more than 10000 nM.
For `CN(C(=O)CNc1c(C(=O)c2ccccc2)cnc2cc(F)ccc12)c1ccc(Cl)cc1` [compound 26706] the same measures were 4 nM and more than 10000 nM.
Turning to `CN(C(=O)CNc1c(C(=O)c2ccccc2)cnc2cccnc12)c1ccc(Cl)c(Cl)c1` [compound 26708], the IC50 in assay [1] was 2.8 nM; in assay [2], more than 10000 nM.
In the case of `CN(CC(=O)N(C)c1ccc(Cl)cc1)c1c(C(=O)c2ccccc2)cnc2cccnc12` [compound 26710], the IC50 was 3.2 nM in assay [1] and more than 10000 nM in assay [2].
In the case of `CN(C(=O)CCNc1c(C(=O)c2ccccc2)cnc2cccnc12)c1ccc(Cl)cc1` [compound 26731], the IC50 is 2.74 nM in assay [1] and more than 10000 nM in assay [2].
For `CN(C(=O)CNc1c(C(=O)c2ccccc2)cnc2cc(Cl)ccc12)c1ccc(C(F)(F)F)cc1` [compound 26778], in that order: 27 nM and more than 10000 nM.
With `CN(C(=O)CNc1c(C(=O)c2ccccc2)cnc2cc(C(F)(F)F)ccc12)c1ccc(Cl)cc1` [compound 26794], the figures for the half-maximal inhibitory concentration (IC50) in assay [1] and in assay [2] were 11 nM and more than 10000 nM, respectively.
As for `CN(C(=O)CNc1c(C(=O)c2ccccc2)cnc2cccnc12)c1ccccc1` [compound 26803], the 50% inhibitory concentration (IC50) in assay [1] was 7.1 nM; in assay [2], 5430 nM.
Regarding `CN(C(=O)CNc1c(C(=O)c2ccccc2)c[n+]([O-])c2cccnc12)c1ccc(Cl)cc1` [compound 26838], the IC50 was 10.8 nM in assay [1] and 7650 nM in assay [2].
With `CN(CC(=O)N(C)c1ccc(Cl)cc1)c1c(C(=O)c2ccccc2)cnc2cc(Cl)ccc12` [compound 26841], the half-inhibitory concentration (IC50) in assay [1] was 17 nM; in assay [2], more than 10000 nM.
For the molecule `CN(C(=O)CNc1c(C(=O)c2ccccc2)cnc2cccnc12)c1ccc(C(F)(F)F)cc1` [compound 26847], the IC50 was 1.59 nM in assay [1] and more than 10000 nM in assay [2].
With `CCCN(CCC)C(=O)CC(C)Nc1c(C(=O)OCC)cnc2cc(Cl)cnc12` (stereo not shown) [compound 26869], the IC50 is 172 nM in assay [1] and more than 20000 nM in assay [2].
Consider `CN(C(=O)CNc1c(C(=O)c2ccccc2)cnc2cc(Cl)c(Cl)nc12)c1ccc(Cl)cc1` [compound 26918], for which the half-maximal inhibitory concentration (IC50) in assay [1] amounted to 0.16 nM; in assay [2], 1680 nM.
Regarding `CN(C(=O)CNc1c(C(=O)c2ccccc2)cnc2cnccc12)c1ccc(Cl)cc1` [compound 26919], the IC50 in assay [1] was 52 nM; in assay [2], more than 10000 nM.
In the case of `CCCN(CCC)C(=O)C(C)Nc1c(C(=O)OCC)cnc2cc(F)ccc12` (stereo not shown) [compound 26920], the IC50 in assay [1] was 18 nM; in assay [2] it was more than 20000 nM.
Consider `CN(C(=O)CNc1c(C(=O)c2ccccc2)cnc2cccnc12)c1c(Cl)cccc1Cl` [compound 26947], for which the values for the IC50 in assay [1] and in assay [2] were 0.79 nM and 18600 nM, respectively.
For `Cc1ccc(N(C)C(=O)CNc2c(C(=O)c3ccccc3)cnc3cccnc23)cc1` [compound 26980], in that order: 1.31 nM and 9750 nM.
`C=CCN(C(=O)CNc1c(C(=O)c2ccccc2)cnc2cccnc12)c1ccc(Cl)cc1` [compound 27181]: the IC50 in assay [1] was 0.89 nM; in assay [2], more than 10000 nM.
On to `COc1ccc(N(C)C(=O)CNc2c(C(=O)c3ccccc3)cnc3cc(Br)ccc23)cc1` [compound 27195], for which the half-maximal inhibitory concentration (IC50) in assay [1] was 1 nM; in assay [2], more than 10000 nM.
Consider `COc1ccc(N(C)C(=O)CNc2c(C(=O)c3ccccc3)cnc3cc(Cl)ccc23)cc1` [compound 27196], for which the figures for the half-inhibitory concentration (IC50) in assay [1] and in assay [2] were 0.8 nM and more than 10000 nM, respectively.
As to `CCOc1ccc(N(C)C(=O)CNc2c(C(=O)c3ccccc3)cnc3cc(Cl)ccc23)cc1` [compound 27271], the IC50 in assay [1] is 68 nM; in assay [2], more than 10000 nM.
